In US9497970B2, “Pesticide compounds” (priority 2013, dated 2016):

Legend:
Type in all cases: in vivo
[1] = tested on: Diamond Back Moth (Plutella xylostella); test: B.1 Diamond Back Moth (Plutella xylostella), cabbage leaf dip; settings: foliar, 500 ppm, 3rd instar larvae on dipped cabbage leaves, 72 hours after treatment, in comparison with untreated controls, read-out: mortality
How it was run: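 Cabbage leaves dipped in compound in 1:1 water:acetone with 0.01% Kinetic HV surfactant, air-dried, then infested with ten 3rd-instar larvae on moist filter paper. Mortality scored at 72 h after treatment; feeding damage rated on a 0-100% scale.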

[2] = tested on: Boll Weevil (Anthonomus grandis); test: B.3 Boll Weevil (Anthonomus grandis), microtiter plate insect diet; settings: 120 h, 800 ppm, sprayed onto insect diet, 5 days, in comparison with untreated controls, read-out: mortality (egg and larval)
How it was run: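 Compounds in 25% DMSO/water sprayed at several concentrations onto insect diet in microtiter wells holding 5–10 A. grandis eggs, two replicates. Plates kept 5 days at about 25±1 °C and 75±5% RH. Egg and larval mortality scored visually.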

[3] = tested on: Silverleaf Whitefly (Bemisia argentifoli); test: B.5 Silverleaf Whitefly (Bemisia argentifoli), sprayed cotton plants; settings: 72 h, whitefly adults on sprayed cotton plants, 3 days after treatment, in comparison with untreated controls
Protocol: B.5 Silverleaf Whitefly (Bemisia argentifoli)
(§1) The active compounds were formulated by a Tecan liquid handler in 100% cyclohexanone as a 10,000 ppm solution supplied in tubes. The 10,000 ppm solution was serially diluted in 100% cyclohexanone to make interim solutions. These served as stock solutions for which final dilutions were made by the Tecan in 50% acetone:50% water (v/v) into 5 or 10 ml glass vials. A nonionic surfactant (Kinetic®) was included in the solution at a volume of 0.01% (v/v). The vials were then inserted into an automated electrostatic sprayer equipped with an atomizing nozzle for application to plants/insects.
Cotton plants at the cotyledon stage (one plant per pot) were sprayed by an automated electrostatic plant sprayer equipped with an atomizing spray nozzle. The plants were dried in the sprayer fume hood and then removed from the sprayer. Each pot was placed into a plastic cup and about 10 to 12 whitefly adults (approximately 3-5 days old) were introduced. The insects were collected using an aspirator and a nontoxic Tygon® tubing connected to a barrier pipette tip. The tip, containing the collected insects, was then gently inserted into the soil containing the treated plant, allowing insects to crawl out of the tip to reach the foliage for feeding. Cups were covered with a reusable screened lid. Test plants were maintained in a growth room at about 25° C. and about 20-40% relative humidity for 3 days, avoiding direct exposure to fluorescent light (24 hour photoperiod) to prevent trapping of heat inside the cup. Mortality was assessed 3 days after treatment, compared to untreated control plants.

[4] = tested on: Mediterranean Fruitfly (Ceratitis capitata); test: B.6 Mediterranean Fruitfly (Ceratitis capitata), microtiter plate insect diet; settings: 120 h, 800 ppm, sprayed onto insect diet, 5 days, in comparison with untreated controls, read-out: mortality (egg and larval)
How it was run: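 Insect diet with 50-80 C. capitata eggs sprayed with compounds formulated in 75% water/25% DMSO, at different concentrations, two replications. Incubation at about 28±1° C and 80±5% relative humidity for 5 days, then egg and larval mortality assessed visually.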

[5] = tested on: Tobacco Budworm (Heliothis virescens); test: B.7 Tobacco Budworm (Heliothis virescens) I, microtiter plate insect diet; settings: 120 h, 800 ppm, sprayed onto insect diet, 5 days, in comparison with untreated controls, read-out: mortality (egg and larval)
How it was run: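 96-well plates with insect diet and 15-25 H. virescens eggs; compounds in 75% water/25% DMSO sprayed onto diet at several concentrations, two replicates. Plates held at about 28±1° C. and 80±5% relative humidity for 5 days, then egg and larval mortality scored visually.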

[6] = tested on: Southern Armyworm (Spodoptera eridania), 2nd Instar Larvae; test: B.10 Southern Armyworm (Spodoptera eridania), 2nd Instar Larvae, sprayed lima bean plants; settings: 96 h, 300 ppm, larvae on sprayed lima bean plants, 4 days after treatment, in comparison with untreated controls, read-out: mortality
Protocol: B.10 Southern Armyworm (Spodoptera eridania), 2nd Instar Larvae
as §1
Lima bean plants (variety Sieva) were grown 2 plants to a pot and selected for treatment at the 1st true leaf stage. Test solutions were sprayed onto the foliage by an automated electrostatic plant sprayer equipped with an atomizing spray nozzle. The plants were dried in the sprayer fume hood and then removed from the sprayer. Each pot was placed into perforated plastic bags with a zip closure. About 10 to 11 armyworm larvae were placed into the bag and the bags zipped closed. Test plants were maintained in a growth room at about 25° C. and about 20-40% relative humidity for 4 days, avoiding direct exposure to fluorescent light (24 hour photoperiod) to prevent trapping of heat inside the bags. Mortality and reduced feeding were assessed 4 days after treatment, compared to untreated control plants.

[7] = tested on: Yellow Fever Mosquito (Aedes aegypti); test: whole plant or invertebrate; settings: 48 h, freshly hatched larvae in tap water, 2 days, in comparison with untreated controls, read-out: mortality (larval)
How it was run: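 Freshly hatched A. aegypti larvae, 5–15 per well, were held in 200 μl tap water. Compounds formulated in 75:25 water:DMSO were sprayed at various concentrations, 2.5 μl per well by micro-atomizer, in two replicates.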

[8] = tested on: Orchid thrips (dichromothrips corbetti); test: B.12 Orchid thrips (dichromothrips corbetti), floral-immersion technique; settings: adult thrips on dipped orchid petals, 72 hours after treatment, in comparison with untreated controls
How it was run: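 Whole orchid flower petals were dipped in compound in 1:1 acetone:water with 0.01% v/v Kinetic HV, dried, and enclosed with about 20 adult thrips. They were held under continuous light at about 28° C. Live thrips were counted and percent mortality recorded at 72 hours.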

[9] = tested on: Green Peach Aphid (Myzus persicae); test: B.9 Green Peach Aphid (Myzus persicae), sprayed bell pepper plants; settings: 120 h, infested bell pepper plants sprayed, after 5 days, in comparison with untreated controls
Protocol: B.9 Green Peach Aphid (Myzus persicae)
as §1, with “in 100% cyclohexa none as a” for “in 100% cyclohexanone as a”
Bell pepper plants at the first true-leaf stage were infested prior to treatment by placing heavily infested leaves from the main colony on top of the treatment plants. Aphids were allowed to transfer overnight to accomplish an infestation of 30-50 aphids per plant and the host leaves were removed. The infested plants were then sprayed by an automated electrostatic plant sprayer equipped with an atomizing spray nozzle. The plants were dried in the sprayer fume hood, removed, and then maintained in a growth room under fluorescent lighting in a 24-hr photoperiod at about 25° C. and about 20-40% relative humidity. Aphid mortality on the treated plants, relative to mortality on untreated control plants, was determined after 5 days.

CC(C)c1ccccc1N1CCCSC1=NN=Cc1ccc2c(ccc3c2ncn3-c2ccc(OC(F)(F)F)cc2)c1 (stereo in doubt) [C-55, (Z)-3-(2-isopropylphenyl)-2-((E)-((3-(4-(trifluoromethoxy)phenyl)-3H-naphtho[1,2-d]imidazol-7-yl)methylene)hydrazono)-1,3-thiazinane]
≥ 75%: mortality at 500 ppm [1] | mortality at 800 ppm [2] | mortality at 300 ppm [3] | mortality at 800 ppm [4] | mortality at 800 ppm [5] | mortality at 300 ppm [6] | mortality at 800 ppm [7] | mortality at 500 ppm [8]

FC(F)(F)Oc1ccc(-n2cnc3c4ccc(/C=N/NC(=S)Nc5ccccc5C(F)(F)F)cc4ccc32)cc1 [C-24, 1-[[3-[4-(trifluoromethoxy)phenyl]-9aH-benzo[e]benzimidazol-7-ylidene]methylimino]-3-[2-(trifluoromethyl)phenyl]isothiourea]
≥ 75%: mortality at 500 ppm [1] | mortality at 800 ppm [2] | mortality at 300 ppm [3] | mortality at 800 ppm [4] | mortality at 500 ppm [8]

CC(C)c1ccccc1N1C(=O)CS/C1=N\N=C\c1ccc2c(ccc3c2ncn3-c2ccc(OC(F)(F)F)cc2)c1 [C-51]
≥ 75%: mortality at 500 ppm [1] | mortality at 800 ppm [2] | mortality at 300 ppm [3] | mortality at 800 ppm [4] | mortality at 800 ppm [5] | mortality at 800 ppm [9] | mortality at 300 ppm [6] | mortality at 800 ppm [7] | mortality at 500 ppm [8]

Cc1cccc(C)c1NC(=S)N/N=C/c1ccc2c(ccc3c2ncn3-c2ccc(C(F)(F)F)cn2)c1 [C-109, 1-(2,6-dimethylphenyl)-3-[(E)-[3-[5-(trifluoromethyl)-2-pyridyl]benzo[e]benzimidazol-7-yl]methyleneamino] thiourea]
≥ 75%: mortality at 500 ppm [1] | mortality at 800 ppm [2] | mortality at 300 ppm [3] | mortality at 800 ppm [4] | mortality at 800 ppm [5] | mortality at 800 ppm [9] | mortality at 800 ppm [7]

CS/C(=N\N=C\c1ccc2c(ccc3c2ncn3-c2ccc(OC(F)(F)F)cc2)c1)Nc1ccccc1C(C)C [C-52, (1Z,N′E)-methyl N-2-isopropylphenyl-N′-((3-(4-(trifluoromethoxy)phenyl)-3H-naphtho[1,2-d]imidazol-7-yl)methylene)carbamohydrazonothioate]
≥ 75%: mortality at 500 ppm [1] | mortality at 800 ppm [2] | mortality at 300 ppm [3] | mortality at 800 ppm [4] | mortality at 800 ppm [5] | mortality at 800 ppm [9] | mortality at 300 ppm [6] | mortality at 500 ppm [8]

Cc1cccc(Cl)c1NC(=S)N/N=C/c1ccc2c(ccc3c2ncn3-c2ccc(SC(F)(F)F)cc2)c1 [C-74, 1-(2-chloro-6-methyl-phenyl)-3-[(E)-[3-[4-(trifluoromethylsulfanyl)phenyl]benzo[e]benzimidazol-7-yl]methyleneamino]thiourea]
≥ 75%: mortality at 500 ppm [1] | mortality at 800 ppm [2] | mortality at 300 ppm [3] | mortality at 800 ppm [4] | mortality at 800 ppm [5] | mortality at 300 ppm [6] | mortality at 800 ppm [7]

O=C(N/N=C/c1ccc2c(ccc3c2ncn3-c2ccc(OC(F)(F)F)cc2)c1)Nc1ccccc1Cl [C-100, 3-(2-chlorophenyl)-1-[[3-[4-(trifluoromethoxy)phenyl]-8H-benzo[e]benzimidazol-7-ylidene]methylimino] isourea]
≥ 75%: mortality at 300 ppm [3]

CCc1cccc(C)c1NC(=S)N/N=C/c1ccc2c(ccc3c2ncn3-c2ccc(SC(F)(F)F)cc2)c1 [C-76, 1-(2-ethyl-6-methyl-phenyl)-3-[(E)-[3-[4-(trifluoromethylsulfanyl)phenyl]benzo[e]benzimidazol-7-yl]methyleneamino]thiourea]
≥ 75%: mortality at 500 ppm [1] | mortality at 800 ppm [2] | mortality at 300 ppm [3] | mortality at 800 ppm [4] | mortality at 800 ppm [5] | mortality at 800 ppm [9] | mortality at 300 ppm [6] | mortality at 800 ppm [7] | mortality at 500 ppm [8]

CSc1cccc(C)c1NC(=S)N/N=C/c1ccc2c(ccc3c2ncn3-c2ccc(OC(F)(F)F)cc2)c1 [C-103, 1-(2-methyl-6-methylsulfanyl-phenyl)-3-[(E)-[3-[4-(trifluoromethoxy)phenyl]benzo[e]benzimidazol-7-yl]methyleneamino]thiourea]
≥ 75%: mortality at 500 ppm [1] | mortality at 800 ppm [2] | mortality at 300 ppm [3] | mortality at 800 ppm [4] | mortality at 800 ppm [5] | mortality at 300 ppm [6] | mortality at 800 ppm [7] | mortality at 500 ppm [8]

CCc1ccccc1NC(=S)N/N=C/c1ccc2c(c1)CCc1c-2cnn1-c1ccc(OC(F)(F)F)cc1 [C-19, 1-(2-ethylphenyl)-3-[[3-[4-(trifluoromethoxy)phenyl]-5,8-dihydro-4H-benzo[e]indazol-7-ylidene]methylimino]thiourea]
≥ 75%: mortality at 300 ppm [3]

CCc1cccc(CC)c1NC(=S)N/N=C/c1ccc2c(ccc3c2ncn3-c2ccc(OC(F)(F)F)cc2)c1 [C-70, 1-(2,6-diethylphenyl)-3-[(E)-[3-[4-(trifluoromethoxy)phenyl]benzo[e]benzimidazol-7-yl]methyleneamino] thiourea]
≥ 75%: mortality at 500 ppm [1] | mortality at 800 ppm [2] | mortality at 300 ppm [3] | mortality at 800 ppm [5] | mortality at 800 ppm [9] | mortality at 300 ppm [6] | mortality at 800 ppm [7] | mortality at 500 ppm [8]

CCc1cccc(C)c1NC(=S)N/N=C/c1ccc2c(ccc3c2ncn3-c2ccc(C(F)(F)F)cc2)c1 [C-78, 1-(2-ethyl-6-methyl-phenyl)-3-[(E)-[3-[4-(trifluoromethyl)phenyl]benzo[e]benzimidazol-7-yl]methyleneamino] thiourea]
≥ 75%: mortality at 500 ppm [1] | mortality at 800 ppm [2] | mortality at 300 ppm [3] | mortality at 800 ppm [4] | mortality at 800 ppm [5] | mortality at 300 ppm [6] | mortality at 500 ppm [8]
